Data on five compounds can be found in patent US6420163B1, “Pharmacological targeting of mRNA cap formation” (priority 1998, dated 2002).

Assay [1] deals with T1, human cap methyltransferase (Hcm1p) (Homo sapiens, UniProt O43148).
T1 construct: His-tag (pET16b leader) (N); made in house; host or cells: Escherichia coli BL21(DE3)
In kind it is biochemical.

Assay [2] concerns the target T2, Mce1(1-210)p RNA triphosphatase domain (Mus musculus, UniProt O55236).
T2 construct: The N-terminal portion of Mce1p from residues 1-210 is an autonomous RNA triphosphatase domain; made in house; host or cells: bacteria
T2 sequence (O55236 1-210): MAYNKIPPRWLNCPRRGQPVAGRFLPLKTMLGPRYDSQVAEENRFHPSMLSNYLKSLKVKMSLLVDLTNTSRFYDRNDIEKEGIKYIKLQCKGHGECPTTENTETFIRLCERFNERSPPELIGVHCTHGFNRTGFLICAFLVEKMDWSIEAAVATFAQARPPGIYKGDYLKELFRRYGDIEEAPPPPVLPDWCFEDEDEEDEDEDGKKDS
As to conditions: 0.5 mM divalent cation; cited from earlier work.

The target of assay [3] is T3, yeast RNA triphosphatase Cet1p (Saccharomyces cerevisiae, UniProt O13297).
T3 construct: His-tag; made in house; host or cells: Escherichia coli BL21(DE3)
Nature of the assay: Manganese-dependent ATP hydrolysis by Cet1p. In kind it is biochemical. As to conditions: truncated Cet1(201-549)p. As for the experimental part: (§1) (FIG. 8A) Protein titration. Reaction mixtures (10 μl) containing 50 mM Tris HCl (pH 7.0), 5 mM DTT, 2 mM MnCl2, 1 mM [γ^32P]ATP, and either Cet1p, Cet1(201-549)p, or Cet1(246-549)p were incubated for 15 min at 30° C. Pi release is plotted as a function of input protein. (FIG. 8B) Kinetics. Reaction mixtures (100 μl) containing 50 mM Tris HCl (pH 7.0), 5 mM DTT, 2 mM MnCl2, 1 mM [γ^32P]ATP, and either 8, 16, or 32 nM Cet1p were incubated at 30° C. Aliquots (10 μl) were withdrawn at the times indicated and quenched immediately by the addition of […] of 5 M formic acid. Pi release is plotted as a function of time. (FIG. 8C) Hydrolysis of [α^32P]ATP. […] The products were analyzed by TLC. […] An otherwise identical reaction containing 1 mM [γ^32P]ATP was analyzed in parallel; Pi release (●). […]
(§2) The extent of ^32Pi relase from [Υ^32P]ATP during a 15 min reaction was proportional to the amount of input Cetlp protein (FIG. 8A). ^32Pi accumulated with time over 30 min; the rate of reaction varied linearly with Cetlp concentration (FIG. 8B). From a plot of initial rate versus enzyme concentration, a turnover number of 25 s^−1 was calculated. Cetlp catalyzed the quantitative conversion of [α^32P]ATP to [α^32P]ADP. […] No formation of [α^32P]AMP from [α^32P]ATP was detected, even after 20-45 min of incubation, by which time all of the nucleotide had been converted to ADP. […]

Assay [4] concerns the target T4, yeast RNA triphosphatase Cet1p (Saccharomyces cerevisiae, UniProt O13297).
T4 construct: His-tag; made in house; host or cells: Escherichia coli BL21(DE3)
T4 sequence (O13297 1-549): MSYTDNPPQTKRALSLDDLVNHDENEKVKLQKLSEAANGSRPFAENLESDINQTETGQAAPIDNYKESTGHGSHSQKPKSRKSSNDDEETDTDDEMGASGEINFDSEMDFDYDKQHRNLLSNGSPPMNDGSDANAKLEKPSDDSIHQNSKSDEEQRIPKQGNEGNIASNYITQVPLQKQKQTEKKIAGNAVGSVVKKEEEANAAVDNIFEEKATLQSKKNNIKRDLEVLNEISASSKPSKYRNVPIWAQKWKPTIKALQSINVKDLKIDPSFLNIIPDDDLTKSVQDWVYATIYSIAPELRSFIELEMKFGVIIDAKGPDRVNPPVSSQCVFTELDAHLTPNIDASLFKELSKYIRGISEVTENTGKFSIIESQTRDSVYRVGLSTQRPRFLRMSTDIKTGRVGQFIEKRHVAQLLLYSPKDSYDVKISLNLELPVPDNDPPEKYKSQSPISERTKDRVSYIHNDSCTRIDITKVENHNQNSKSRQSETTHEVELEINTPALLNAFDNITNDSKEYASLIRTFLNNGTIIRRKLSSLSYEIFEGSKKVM
Nature of the assay: Manganese-dependent ATP hydrolysis by Cet1p. In kind it is biochemical. As to conditions: full-length Cet1p, 2 mM MnCl2, pH 7.0, 30° C. As for the experimental part: as §1, §2

The next assay deals with LEF-4 (Autographa californica nuclear polyhedrosis virus, UniProt P41477). The settings on record: read-out: Km for ATP; cited from earlier work.
Sequence of LEF-4 (P41477 whole entry): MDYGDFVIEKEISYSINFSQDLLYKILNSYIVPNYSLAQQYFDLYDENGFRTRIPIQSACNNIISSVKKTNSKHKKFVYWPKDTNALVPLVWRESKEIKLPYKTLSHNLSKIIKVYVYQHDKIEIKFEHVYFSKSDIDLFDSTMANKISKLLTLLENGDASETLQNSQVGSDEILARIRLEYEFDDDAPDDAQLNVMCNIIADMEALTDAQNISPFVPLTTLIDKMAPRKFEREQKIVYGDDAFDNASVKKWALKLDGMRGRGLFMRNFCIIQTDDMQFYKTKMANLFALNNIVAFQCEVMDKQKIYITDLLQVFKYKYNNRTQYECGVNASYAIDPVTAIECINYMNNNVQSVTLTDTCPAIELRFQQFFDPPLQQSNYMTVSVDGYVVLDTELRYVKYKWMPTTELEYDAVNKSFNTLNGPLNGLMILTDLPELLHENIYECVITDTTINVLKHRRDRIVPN
The target of the next assay is vaccinia triphosphatase (Vaccinia virus, UniProt P04298). The settings on record: read-out: Km for ATP; cited from earlier work.

T1 sequence (O43148 whole entry): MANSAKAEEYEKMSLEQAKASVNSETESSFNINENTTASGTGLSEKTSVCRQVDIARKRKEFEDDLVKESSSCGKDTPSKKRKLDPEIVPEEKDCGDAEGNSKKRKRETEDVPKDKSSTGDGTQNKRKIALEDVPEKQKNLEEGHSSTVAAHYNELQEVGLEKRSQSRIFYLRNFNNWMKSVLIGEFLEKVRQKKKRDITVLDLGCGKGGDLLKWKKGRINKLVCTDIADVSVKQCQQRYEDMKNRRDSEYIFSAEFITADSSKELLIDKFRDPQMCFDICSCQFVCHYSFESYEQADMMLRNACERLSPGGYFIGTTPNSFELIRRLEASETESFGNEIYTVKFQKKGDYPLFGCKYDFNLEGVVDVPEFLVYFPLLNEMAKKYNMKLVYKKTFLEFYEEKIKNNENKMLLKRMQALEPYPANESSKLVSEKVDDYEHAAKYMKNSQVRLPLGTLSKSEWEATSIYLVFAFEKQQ

Take `[Cl-].[Cl-].[Mg+2]` [MgCl2]: the “effect of magnesium on cap methylation” value in assay [1] (1 mM magnesium) is “reduced by an order of magnitude”. The “inhibition of RNA triphosphatase activity” value in assay [2] is 75%.
As for `C[S+](CC[C@H](N)C(=O)[O-])C[C@H]1O[C@@H](n2cnc3c(N)ncnc32)[C@H](O)[C@@H]1O` (stereo partly shown) [AdoMet, S-adenosylmethionine], the “AdoMet concentration giving half-maximal activity” value in assay [1] (peak glycerol gradient fraction of Hcm1p) was about 25 µM.
Turning to `Nc1ncnc2c1ncn2[C@@H]1O[C@H](CSCC[C@H](N)C(=O)O)[C@@H](O)[C@H]1O` [AdoHcy, S-adenosylhomocysteine], the “effect on cap methylation (FIG. 9, lane 4)” value in assay [1] (50 μM AdoMet plus 500 μM AdoHcy) was “partially inhibitory”. Further, in assay [1] (100 μM AdoHcy in the presence of 10 μM AdoMet), the “reduction of cap methylation” value is 80%.
`Nc1ncnc2c1ncn2[C@@H]1O[C@H](COP(=O)(O)OP(=O)(O)OP(=O)(O)O)[C@@H](O)[C@H]1O` [ATP]: the Km in assay [3] is 3.3 µM; in assay [4] it was 2.8 µM; at LEF-4 it was 43 µM; at vaccinia triphosphatase, 800 µM.
For the compound `[Cl][Mn][Cl]` [MnCl2], the “inhibition of RNA triphosphatase activity” value in assay [2] is 75%.
